Structures can show the parent of a compound that is named as a salt.
Tests used:
kappa opioid receptor = kappa opioid receptor (Homo sapiens, UniProt P41145); assay: biochemical; assay type: binding
[1] = biological target: SERT-2, paroxetine binding site on the serotonin transporter (Homo sapiens, UniProt P31645); assay: biochemical
[2] = biological target: SERT-1, cocaine binding site on the serotonin transporter (Homo sapiens, UniProt P31645); assay: biochemical
mu opioid receptor = mu opioid receptor (Homo sapiens, UniProt P35372); assay: biochemical; assay type: binding
mu opioid receptor, sequence (P35372 whole entry): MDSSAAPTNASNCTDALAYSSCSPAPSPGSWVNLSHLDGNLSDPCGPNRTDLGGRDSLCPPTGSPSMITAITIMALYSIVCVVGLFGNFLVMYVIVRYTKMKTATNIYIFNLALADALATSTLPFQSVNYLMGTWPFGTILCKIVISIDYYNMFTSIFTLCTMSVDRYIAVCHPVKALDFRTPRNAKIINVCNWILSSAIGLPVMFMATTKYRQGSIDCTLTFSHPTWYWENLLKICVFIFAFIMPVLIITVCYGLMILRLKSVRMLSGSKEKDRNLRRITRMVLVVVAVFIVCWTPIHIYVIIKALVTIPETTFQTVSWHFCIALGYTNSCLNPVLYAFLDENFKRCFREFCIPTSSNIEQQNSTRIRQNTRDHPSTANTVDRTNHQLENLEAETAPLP

serotonin transporter = assay: binding at serotonin transporter, comparison with SSRIs; conditions: vs citalopram, sertraline and fluoxetine
[3] = biological target: DAT, dopamine transporter (Homo sapiens, UniProt Q01959); assay: radioligand binding, DAT ([^3 H]WIN35,428); conditions: radioligand [^3 H]WIN35,428; racemic; spiroindanamines as hydrochlorides; read-out: Affinity (IC50) DAT ([^3 H]WIN35,428)
DAT, dopamine transporter, sequence (Q01959 whole entry): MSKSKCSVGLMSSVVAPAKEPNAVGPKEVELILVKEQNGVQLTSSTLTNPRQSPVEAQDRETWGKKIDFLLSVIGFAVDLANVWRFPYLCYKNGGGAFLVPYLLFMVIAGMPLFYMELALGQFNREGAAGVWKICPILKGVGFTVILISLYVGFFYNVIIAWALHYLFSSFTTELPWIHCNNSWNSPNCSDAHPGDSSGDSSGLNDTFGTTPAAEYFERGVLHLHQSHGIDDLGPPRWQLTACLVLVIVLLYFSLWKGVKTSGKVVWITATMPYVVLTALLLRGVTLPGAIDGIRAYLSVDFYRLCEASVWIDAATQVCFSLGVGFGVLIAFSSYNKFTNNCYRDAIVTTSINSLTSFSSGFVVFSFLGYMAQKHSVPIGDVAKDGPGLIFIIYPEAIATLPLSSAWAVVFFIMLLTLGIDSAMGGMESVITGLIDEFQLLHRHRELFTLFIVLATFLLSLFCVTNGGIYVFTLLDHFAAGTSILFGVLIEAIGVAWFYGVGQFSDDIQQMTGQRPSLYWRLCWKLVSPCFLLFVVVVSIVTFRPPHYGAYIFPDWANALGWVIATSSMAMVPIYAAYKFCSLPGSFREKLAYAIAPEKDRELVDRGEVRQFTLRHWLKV

kappa opioid receptor, sequence (P41145 whole entry): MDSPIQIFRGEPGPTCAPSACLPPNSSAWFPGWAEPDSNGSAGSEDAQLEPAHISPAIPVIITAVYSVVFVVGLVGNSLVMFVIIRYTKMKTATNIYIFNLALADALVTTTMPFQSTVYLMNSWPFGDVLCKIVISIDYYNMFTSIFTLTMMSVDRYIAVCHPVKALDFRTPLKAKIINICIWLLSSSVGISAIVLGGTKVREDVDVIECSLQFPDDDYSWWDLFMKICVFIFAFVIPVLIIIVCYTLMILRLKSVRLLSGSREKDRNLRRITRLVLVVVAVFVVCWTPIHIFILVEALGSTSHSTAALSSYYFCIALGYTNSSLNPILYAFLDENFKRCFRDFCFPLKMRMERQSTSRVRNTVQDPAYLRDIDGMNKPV
SERT-1, cocaine binding site on the serotonin transporter, sequence (P31645 whole entry): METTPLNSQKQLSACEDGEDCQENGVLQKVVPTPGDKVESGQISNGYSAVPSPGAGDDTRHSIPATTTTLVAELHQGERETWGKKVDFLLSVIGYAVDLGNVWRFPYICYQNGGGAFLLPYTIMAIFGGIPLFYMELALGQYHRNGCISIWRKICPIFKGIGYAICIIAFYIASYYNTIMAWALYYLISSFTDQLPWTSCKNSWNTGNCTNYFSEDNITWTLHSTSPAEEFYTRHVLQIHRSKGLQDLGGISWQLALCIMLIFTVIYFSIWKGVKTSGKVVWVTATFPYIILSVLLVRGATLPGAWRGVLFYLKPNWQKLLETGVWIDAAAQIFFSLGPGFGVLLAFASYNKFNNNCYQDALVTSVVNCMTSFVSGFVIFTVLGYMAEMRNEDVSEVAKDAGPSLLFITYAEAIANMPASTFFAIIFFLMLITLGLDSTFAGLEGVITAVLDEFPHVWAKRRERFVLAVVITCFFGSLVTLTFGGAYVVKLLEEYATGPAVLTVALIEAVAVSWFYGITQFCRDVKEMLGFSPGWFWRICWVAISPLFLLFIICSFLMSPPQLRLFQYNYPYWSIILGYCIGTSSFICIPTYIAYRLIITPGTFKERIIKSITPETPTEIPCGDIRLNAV
SERT-2, paroxetine binding site on the serotonin transporter, sequence (P31645 whole entry): as above

COc1ccc2c(c1)C1(CC(=O)NC1=O)CC2c1ccc(Cl)c(Cl)c1 (racemic) [Compound 1c, 3-(3,4-Dichlorophenyl)-6-methoxyspiro[indan-1,3'-pyrrolidin]-2',5'-dione]
IC50 (kappa opioid receptor): > 100 µM | IC50 [1]: > 100 µM | affinity at SERT-2 (in words) [1]: higher affinity for SERT-2 than the basic spiroindanamines 3d and 4a | IC50 [2]: 0.25 µM | IC50 (mu opioid receptor): 100 µM

c1ccc(C2CC3(CCNC3)c3ccccc32)cc1 (racemic) [Compound 3a, 3-Phenylspiro[indan-1,3'-pyrrolidine]]
affinity for the serotonin transporter relative to SSRIs (serotonin transporter): comparable to or higher than that of other specific serotonin re-uptake inhibitors (SSRIs) | IC50 (kappa opioid receptor): 10 µM | IC50 [1]: 2.5 µM | affinity at SERT-2 (in words) [1]: moderate to weak affinity | IC50 [2]: 0.01 µM | affinity for SERT-1 (in words) [2]: low nanomolar affinity | IC50 (mu opioid receptor): 0.5 µM | IC50 [3]: 0.2 µM

COc1ccc2c(c1)C1(CCNC1)CC2c1ccc(Cl)c(Cl)c1 (racemic) [Compound 3c, 3-(3,4-Dichlorophenyl)-6-methoxyspiro[indan-1,3'-pyrrolidine]]
affinity for the serotonin transporter relative to SSRIs (serotonin transporter): comparable to or higher than that of other specific serotonin re-uptake inhibitors (SSRIs) | IC50 (kappa opioid receptor): 80 µM | IC50 [1]: 0.4 µM | affinity at SERT-2 (in words) [1]: moderate to weak affinity | IC50 [2]: 0.002 µM | affinity for SERT-1 (in words) [2]: low nanomolar affinity | IC50 (mu opioid receptor): 5 µM | IC50 [3]: 0.15 µM

Oc1ccc2c(c1)C1(CCNC1)CC2c1ccc(Cl)c(Cl)c1 (racemic) [Compound 3d, 3-(3,4-Dichlorophenyl)-6-hydroxyspiro[indan-1,3'-pyrrolidine]]
IC50 (kappa opioid receptor): 1.52 µM | IC50 [1]: 0.3 µM | IC50 [2]: 0.75 µM | IC50 (mu opioid receptor): 2.9 µM | IC50 [3]: 0.73 µM

c1ccc(C2CC3(CCN(CC4CC4)C3)c3ccccc32)cc1 (racemic) [Compound 4a, 1'-Cyclopropylmethyl-3-phenylspiro[indan-1,3'-pyrrolidine] hydrochloride]
IC50 (kappa opioid receptor): 1 µM | IC50 [1]: 2 µM | IC50 [2]: 2.41 µM | IC50 (mu opioid receptor): 0.98 µM | IC50 [3]: 2.9 µM

O=C1C[C@@]2(C[C@@H](c3ccccc3)c3ccccc32)C(=O)N1 (relative stereo) [Compound 1a, cis-3-Phenylspiro[indan-1,3'-pyrrolidine]-2',5'-dione]
IC50 (kappa opioid receptor): > 100 µM | IC50 [1]: > 100 µM | IC50 [2]: 26.7 µM | IC50 (mu opioid receptor): 100 µM

— US5948807A (priority 1997, dated 1999)
